Numbers after ± are expanded uncertainties.
Assay: xn = mol fraction of the nth substance listed
Settings: 100 kPa, Liquid; for viscosity: Falling or rolling sphere viscometry; for mass density: Vibrating tube method

CCCCCCCCCCCC(=O)OC [methyl dodecanoate] + CC1CCCCC1
viscosity (293.15 K, x2 = 0): 3.151 ± 0.067 mPa·s | viscosity (293.15 K, x2 = 0.1): 2.838 ± 0.061 mPa·s | viscosity (293.15 K, x2 = 0.2): 2.545 ± 0.054 mPa·s | viscosity (293.15 K, x2 = 0.3): 2.264 ± 0.048 mPa·s | viscosity (293.15 K, x2 = 0.4001): 2 ± 0.043 mPa·s | viscosity (293.15 K, x2 = 0.5001): 1.743 ± 0.037 mPa·s | viscosity (293.15 K, x2 = 0.6): 1.501 ± 0.032 mPa·s | viscosity (293.15 K, x2 = 0.6999): 1.28 ± 0.027 mPa·s | viscosity (293.15 K, x2 = 0.8): 1.071 ± 0.023 mPa·s | viscosity (293.15 K, x2 = 0.8999): 0.887 ± 0.019 mPa·s | mass density (293.15 K, x2 = 0): 869.3 ± 1.7 kg/m3 | mass density (293.15 K, x2 = 0.1): 863.68 ± 1.7 kg/m3 | mass density (293.15 K, x2 = 0.2): 857.47 ± 1.7 kg/m3 | mass density (293.15 K, x2 = 0.3): 850.62 ± 1.7 kg/m3 | mass density (293.15 K, x2 = 0.4001): 842.9 ± 1.7 kg/m3 | mass density (293.15 K, x2 = 0.5001): 834.34 ± 1.7 kg/m3 | mass density (293.15 K, x2 = 0.6): 824.66 ± 1.6 kg/m3 | mass density (293.15 K, x2 = 0.6999): 813.62 ± 1.6 kg/m3 | mass density (293.15 K, x2 = 0.8): 801 ± 1.6 kg/m3 | mass density (293.15 K, x2 = 0.8999): 786.46 ± 1.6 kg/m3 | viscosity (298.15 K, x2 = 0): 2.792 ± 0.06 mPa·s | viscosity (298.15 K, x2 = 0.1): 2.527 ± 0.054 mPa·s | viscosity (298.15 K, x2 = 0.2): 2.28 ± 0.049 mPa·s | viscosity (298.15 K, x2 = 0.3): 2.041 ± 0.044 mPa·s | viscosity (298.15 K, x2 = 0.4001): 1.811 ± 0.039 mPa·s | viscosity (298.15 K, x2 = 0.5001): 1.587 ± 0.034 mPa·s | viscosity (298.15 K, x2 = 0.6): 1.373 ± 0.029 mPa·s | viscosity (298.15 K, x2 = 0.6999): 1.177 ± 0.025 mPa·s | viscosity (298.15 K, x2 = 0.8): 0.992 ± 0.021 mPa·s | viscosity (298.15 K, x2 = 0.8999): 0.825 ± 0.018 mPa·s | mass density (298.15 K, x2 = 0): 865.39 ± 1.7 kg/m3 | mass density (298.15 K, x2 = 0.1): 859.76 ± 1.7 kg/m3 | mass density (298.15 K, x2 = 0.2): 853.54 ± 1.7 kg/m3 | mass density (298.15 K, x2 = 0.3): 846.68 ± 1.7 kg/m3 | mass density (298.15 K, x2 = 0.4001): 838.94 ± 1.7 kg/m3 | mass density (298.15 K, x2 = 0.5001): 830.36 ± 1.7 kg/m3 | mass density (298.15 K, x2 = 0.6): 820.65 ± 1.6 kg/m3 | mass density (298.15 K, x2 = 0.6999): 809.56 ± 1.6 kg/m3 | mass density (298.15 K, x2 = 0.8): 796.88 ± 1.6 kg/m3 | mass density (298.15 K, x2 = 0.8999): 782.25 ± 1.6 kg/m3 | viscosity (303.15 K, x2 = 0): 2.504 ± 0.054 mPa·s | viscosity (303.15 K, x2 = 0.1): 2.279 ± 0.049 mPa·s | viscosity (303.15 K, x2 = 0.2): 2.06 ± 0.044 mPa·s | viscosity (303.15 K, x2 = 0.3): 1.85 ± 0.04 mPa·s | viscosity (303.15 K, x2 = 0.4001): 1.646 ± 0.035 mPa·s | viscosity (303.15 K, x2 = 0.5001): 1.448 ± 0.031 mPa·s | viscosity (303.15 K, x2 = 0.6): 1.261 ± 0.027 mPa·s | viscosity (303.15 K, x2 = 0.6999): 1.087 ± 0.023 mPa·s | viscosity (303.15 K, x2 = 0.8): 0.919 ± 0.02 mPa·s | viscosity (303.15 K, x2 = 0.8999): 0.77 ± 0.016 mPa·s | mass density (303.15 K, x2 = 0): 861.46 ± 1.7 kg/m3 | mass density (303.15 K, x2 = 0.1): 855.83 ± 1.7 kg/m3 | mass density (303.15 K, x2 = 0.2): 849.6 ± 1.7 kg/m3 | mass density (303.15 K, x2 = 0.3): 842.72 ± 1.7 kg/m3 | mass density (303.15 K, x2 = 0.4001): 834.97 ± 1.7 kg/m3 | mass density (303.15 K, x2 = 0.5001): 826.36 ± 1.7 kg/m3 | mass density (303.15 K, x2 = 0.6): 816.61 ± 1.6 kg/m3 | mass density (303.15 K, x2 = 0.6999): 805.48 ± 1.6 kg/m3 | mass density (303.15 K, x2 = 0.8): 792.75 ± 1.6 kg/m3 | mass density (303.15 K, x2 = 0.8999): 778.03 ± 1.6 kg/m3 | viscosity (308.15 K, x2 = 0): 2.263 ± 0.048 mPa·s | viscosity (308.15 K, x2 = 0.1): 2.064 ± 0.044 mPa·s | viscosity (308.15 K, x2 = 0.2): 1.876 ± 0.04 mPa·s | viscosity (308.15 K, x2 = 0.3): 1.693 ± 0.036 mPa·s | viscosity (308.15 K, x2 = 0.4001): 1.512 ± 0.032 mPa·s | viscosity (308.15 K, x2 = 0.5001): 1.339 ± 0.029 mPa·s | viscosity (308.15 K, x2 = 0.6): 1.168 ± 0.025 mPa·s | viscosity (308.15 K, x2 = 0.6999): 1.007 ± 0.022 mPa·s | viscosity (308.15 K, x2 = 0.8): 0.858 ± 0.018 mPa·s | viscosity (308.15 K, x2 = 0.8999): 0.722 ± 0.015 mPa·s | mass density (308.15 K, x2 = 0): 857.53 ± 1.7 kg/m3 | mass density (308.15 K, x2 = 0.1): 851.9 ± 1.7 kg/m3 | mass density (308.15 K, x2 = 0.2): 845.67 ± 1.7 kg/m3 | mass density (308.15 K, x2 = 0.3): 838.76 ± 1.7 kg/m3 | mass density (308.15 K, x2 = 0.4001): 830.99 ± 1.7 kg/m3 | mass density (308.15 K, x2 = 0.5001): 822.36 ± 1.6 kg/m3 | mass density (308.15 K, x2 = 0.6): 812.57 ± 1.6 kg/m3 | mass density (308.15 K, x2 = 0.6999): 801.4 ± 1.6 kg/m3 | mass density (308.15 K, x2 = 0.8): 788.6 ± 1.6 kg/m3 | mass density (308.15 K, x2 = 0.8999): 773.79 ± 1.6 kg/m3 | viscosity (313.15 K, x2 = 0): 2.049 ± 0.044 mPa·s | viscosity (313.15 K, x2 = 0.1): 1.877 ± 0.04 mPa·s | viscosity (313.15 K, x2 = 0.2): 1.714 ± 0.037 mPa·s | viscosity (313.15 K, x2 = 0.3): 1.552 ± 0.033 mPa·s | viscosity (313.15 K, x2 = 0.4001): 1.393 ± 0.03 mPa·s | viscosity (313.15 K, x2 = 0.5001): 1.237 ± 0.026 mPa·s | viscosity (313.15 K, x2 = 0.6): 1.086 ± 0.023 mPa·s | viscosity (313.15 K, x2 = 0.6999): 0.937 ± 0.02 mPa·s | viscosity (313.15 K, x2 = 0.8): 0.801 ± 0.017 mPa·s | viscosity (313.15 K, x2 = 0.8999): 0.676 ± 0.014 mPa·s | mass density (313.15 K, x2 = 0): 853.61 ± 1.7 kg/m3 | mass density (313.15 K, x2 = 0.1): 847.96 ± 1.7 kg/m3 | mass density (313.15 K, x2 = 0.2): 841.71 ± 1.7 kg/m3 | mass density (313.15 K, x2 = 0.3): 834.79 ± 1.7 kg/m3 | mass density (313.15 K, x2 = 0.4001): 827.01 ± 1.7 kg/m3 | mass density (313.15 K, x2 = 0.5001): 818.35 ± 1.6 kg/m3 | mass density (313.15 K, x2 = 0.6): 808.52 ± 1.6 kg/m3 | mass density (313.15 K, x2 = 0.6999): 797.31 ± 1.6 kg/m3 | mass density (313.15 K, x2 = 0.8): 784.44 ± 1.6 kg/m3 | mass density (313.15 K, x2 = 0.8999): 769.54 ± 1.6 kg/m3 | viscosity (318.15 K, x2 = 0): 1.875 ± 0.04 mPa·s | viscosity (318.15 K, x2 = 0.1): 1.725 ± 0.037 mPa·s | viscosity (318.15 K, x2 = 0.2): 1.581 ± 0.034 mPa·s | viscosity (318.15 K, x2 = 0.3): 1.437 ± 0.031 mPa·s | viscosity (318.15 K, x2 = 0.4001): 1.294 ± 0.028 mPa·s | viscosity (318.15 K, x2 = 0.5001): 1.151 ± 0.025 mPa·s | viscosity (318.15 K, x2 = 0.6): 1.012 ± 0.022 mPa·s | viscosity (318.15 K, x2 = 0.6999): 0.879 ± 0.019 mPa·s | viscosity (318.15 K, x2 = 0.8): 0.754 ± 0.016 mPa·s | viscosity (318.15 K, x2 = 0.8999): 0.638 ± 0.014 mPa·s | mass density (318.15 K, x2 = 0): 849.69 ± 1.7 kg/m3 | mass density (318.15 K, x2 = 0.1): 844.02 ± 1.7 kg/m3 | mass density (318.15 K, x2 = 0.2): 837.77 ± 1.7 kg/m3 | mass density (318.15 K, x2 = 0.3): 830.83 ± 1.7 kg/m3 | mass density (318.15 K, x2 = 0.4001): 823.02 ± 1.6 kg/m3 | mass density (318.15 K, x2 = 0.5001): 814.32 ± 1.6 kg/m3 | mass density (318.15 K, x2 = 0.6): 804.45 ± 1.6 kg/m3 | mass density (318.15 K, x2 = 0.6999): 793.18 ± 1.6 kg/m3 | mass density (318.15 K, x2 = 0.8): 780.26 ± 1.6 kg/m3 | mass density (318.15 K, x2 = 0.8999): 765.28 ± 1.5 kg/m3 | viscosity (323.15 K, x2 = 0): 1.729 ± 0.037 mPa·s | viscosity (323.15 K, x2 = 0.1): 1.592 ± 0.034 mPa·s | viscosity (323.15 K, x2 = 0.2): 1.461 ± 0.031 mPa·s | viscosity (323.15 K, x2 = 0.3): 1.332 ± 0.028 mPa·s | viscosity (323.15 K, x2 = 0.4001): 1.202 ± 0.026 mPa·s | viscosity (323.15 K, x2 = 0.5001): 1.073 ± 0.023 mPa·s | viscosity (323.15 K, x2 = 0.6): 0.946 ± 0.02 mPa·s | viscosity (323.15 K, x2 = 0.6999): 0.826 ± 0.018 mPa·s | viscosity (323.15 K, x2 = 0.8): 0.711 ± 0.015 mPa·s | viscosity (323.15 K, x2 = 0.8999): 0.603 ± 0.013 mPa·s | mass density (323.15 K, x2 = 0): 845.76 ± 1.7 kg/m3 | mass density (323.15 K, x2 = 0.1): 840.08 ± 1.7 kg/m3 | mass density (323.15 K, x2 = 0.2): 833.81 ± 1.7 kg/m3 | mass density (323.15 K, x2 = 0.3): 826.86 ± 1.7 kg/m3 | mass density (323.15 K, x2 = 0.4001): 819.02 ± 1.6 kg/m3 | mass density (323.15 K, x2 = 0.5001): 810.28 ± 1.6 kg/m3 | mass density (323.15 K, x2 = 0.6): 800.37 ± 1.6 kg/m3 | mass density (323.15 K, x2 = 0.6999): 789.06 ± 1.6 kg/m3 | mass density (323.15 K, x2 = 0.8): 776.07 ± 1.6 kg/m3 | mass density (323.15 K, x2 = 0.8999): 761 ± 1.5 kg/m3
